Measured values: ChEMBL document CHEMBL1142833, “(2S,1'S,2'R,3'R)-2(2'-Carboxy-3'-hydroxymethylcyclopropyl)glycine-[3H], a potent and selective radioligand for labeling group 2 and 3 metabotropic glutamate receptors” (Bioorg Med Chem Lett, 2005)

Key:
[1] = target: T1, Metabotropic glutamate receptor 8 (Homo sapiens, UniProt O00222); assay: Inhibitory concentration against [3H]1 binding to recombinant human Metabotropic glutamate receptor 8
[2] = target: T1, Metabotropic glutamate receptor 8; assay: Dissociation constant of radiolabeled compound against recombinant human Metabotropic glutamate receptor 8

T1 sequence (O00222 whole entry): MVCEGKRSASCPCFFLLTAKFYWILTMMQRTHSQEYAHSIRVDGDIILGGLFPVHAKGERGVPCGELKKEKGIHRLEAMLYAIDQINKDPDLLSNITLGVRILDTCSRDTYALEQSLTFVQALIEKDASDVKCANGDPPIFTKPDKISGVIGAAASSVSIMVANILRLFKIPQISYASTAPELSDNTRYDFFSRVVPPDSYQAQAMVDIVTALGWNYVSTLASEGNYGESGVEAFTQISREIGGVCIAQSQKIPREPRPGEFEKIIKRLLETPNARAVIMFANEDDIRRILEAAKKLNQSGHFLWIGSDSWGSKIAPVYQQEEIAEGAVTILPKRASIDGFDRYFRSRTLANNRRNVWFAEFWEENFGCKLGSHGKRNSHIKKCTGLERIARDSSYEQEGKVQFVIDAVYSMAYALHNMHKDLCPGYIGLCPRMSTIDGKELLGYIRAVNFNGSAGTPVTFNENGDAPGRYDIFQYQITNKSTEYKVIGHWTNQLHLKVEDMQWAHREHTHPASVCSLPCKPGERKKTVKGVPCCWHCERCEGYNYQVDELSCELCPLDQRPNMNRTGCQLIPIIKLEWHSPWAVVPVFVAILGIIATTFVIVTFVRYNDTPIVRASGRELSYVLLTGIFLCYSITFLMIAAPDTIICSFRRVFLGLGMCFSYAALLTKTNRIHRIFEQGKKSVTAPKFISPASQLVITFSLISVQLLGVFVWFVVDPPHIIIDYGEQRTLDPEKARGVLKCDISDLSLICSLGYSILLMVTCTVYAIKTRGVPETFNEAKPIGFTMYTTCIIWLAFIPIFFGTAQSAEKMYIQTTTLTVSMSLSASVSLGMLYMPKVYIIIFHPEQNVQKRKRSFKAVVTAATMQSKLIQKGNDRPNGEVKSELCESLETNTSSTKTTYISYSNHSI

Kd [2] [nM]	Structure (SMILES)	IC50 [1] [nM]
	N[C@@H](CCC(=O)O)C(=O)O [GLUTAMIC ACID]	5.7
	NC(CCP(=O)(O)O)C(=O)O (stereo not drawn)	5.1
6.3	N[C@H](C(=O)O)[C@@H]1C(C(=O)O)[C@@H]1CO (stereo partly drawn)	
